Type in all cases: cell-based
Assay [1] deals with reconstructed human pigmented epidermis (RHPE). In words: Depigmentation test: melanin quantification by imaging. To be noted: daily application day 9 to day 17, in comparison with Control, read-out: melanin reduction. As to the method: The depigmenting potential of the ALRE was assessed on reconstructed human pigmented epidermis (RHPE). Said cells were specifically generated for screening depigmenting agents or skin lightening products prior to human in vivo testing, as disclosed in Hall et al., Reconstructed human pigmented skin/epidermis models achieve epidermal pigmentation through melanocore transfer, Pigment Cell Melanoma Res., 2022, 35, 425-435. On day 9, the medium was replaced with a daily renewal, incorporating test compounds: the ALRE at concentrations of 0.2, 0.1, and 0.05 mg/ml, comparing its effect with 10 µM Retinol. In this assessment, […] DMSO was used as a negative control and 250 µM Kojic acid as a positive control. Images for melanin evaluation were captured on day 17 using Leica EZ4 W stereo microscope (Leica Microsystems, Wetzlar, Germany) and quantified as follows: all imaging processing steps were performed with the imaging software Fiji/lmageJ v 1.52n (Schindelin et al., Fiji - an Open Source platform for biological image analysis, Nat. Methods, 2012, 9(7), doi:10-1038). […] Statistical differences were determined by two-way ANOVA using R version 4.3.2 (R: A Language and Environment for Statistical Computing, n.d.). […]

The subject of a further assay is Human Dermal Fibroblasts. To be noted: 6 h, 10 µM retinol or 0.05 mg/ml ALRE. As to the method: To better understand the cellular pathways and processes that were modulated by the ALRE in human dermal fibroblasts, and its relevance with respect to retinol, a comprehensive and comparative assessment of gene expression by transcriptome analysis was conducted.
Three biological triplicates of Human Dermal Fibroblasts (HDF; ZenBio Inc., Research Triangle Park, NC, USA) were stimulated for 6 h with either 10 µM retinol or 0.05 mg/ml ALRE. RNA was extracted with the TRIzol® Plus RNA Purification Kit, including DNase I treatment step, according to manufacturer's instructions. RNA quality and quantity were inspected by spectrophotometric measurement using a NanoDrop™ One spectrophotometer (Thermo Fisher Scientific, Pittsburgh, PA, USA).
Messenger RNA was purified from total RNA using poly-T oligo-attached magnetic beads. After fragmentation, the first strand cDNA was synthesized using random hexamer primers, followed by the second strand cDNA synthesis using either dUTP for directional library or dTTP for non-directional library. For the non-directional library, it was ready after end repair, A-tailing, adapter ligation, size selection, amplification, and purification. For the directional library, it was ready after end repair, A-tailing, adapter ligation, size selection, USER enzyme digestion, amplification, and purification . The library was checked with Qubit and real-time PCR for quantification and bioanalyzer for size distribution detection. Quantified libraries were pooled and sequenced (Paired-end 150 bp) on Illumina platforms, according to effective library concentration and data amount.
Obtained data were studied by bioinformatic analysis as disclosed, for example, in Liao et al, featureCounts: an efficient general purpose program for assigning sequence reads to genomic features, Bioinformatics, 2014 ,30(7), 923-30, Mortazavi et al., Mapping and quantifying mammalian transcriptomes by RNA-Seq, Nature Methods, 2008, 5(7), 621-628, and Robinson et al., edgeR: a Bioconductor package for differential expression analysis of digital gene expression data, Bioinformatics, 2010, 26(1), 139-140.
Genes involved in the following categories were studied: • 2.1.- Retinoid binding, metabolizing genes and lipid transport • 2.2.- Extracellular matrix • 2.3.- Inflammatory pathway

The target in another assay is T1, human TRPV1 channel (Homo sapiens, UniProt Q8NER1).
T1 construct: expressed in transfected cells
T1 sequence (Q8NER1 whole entry): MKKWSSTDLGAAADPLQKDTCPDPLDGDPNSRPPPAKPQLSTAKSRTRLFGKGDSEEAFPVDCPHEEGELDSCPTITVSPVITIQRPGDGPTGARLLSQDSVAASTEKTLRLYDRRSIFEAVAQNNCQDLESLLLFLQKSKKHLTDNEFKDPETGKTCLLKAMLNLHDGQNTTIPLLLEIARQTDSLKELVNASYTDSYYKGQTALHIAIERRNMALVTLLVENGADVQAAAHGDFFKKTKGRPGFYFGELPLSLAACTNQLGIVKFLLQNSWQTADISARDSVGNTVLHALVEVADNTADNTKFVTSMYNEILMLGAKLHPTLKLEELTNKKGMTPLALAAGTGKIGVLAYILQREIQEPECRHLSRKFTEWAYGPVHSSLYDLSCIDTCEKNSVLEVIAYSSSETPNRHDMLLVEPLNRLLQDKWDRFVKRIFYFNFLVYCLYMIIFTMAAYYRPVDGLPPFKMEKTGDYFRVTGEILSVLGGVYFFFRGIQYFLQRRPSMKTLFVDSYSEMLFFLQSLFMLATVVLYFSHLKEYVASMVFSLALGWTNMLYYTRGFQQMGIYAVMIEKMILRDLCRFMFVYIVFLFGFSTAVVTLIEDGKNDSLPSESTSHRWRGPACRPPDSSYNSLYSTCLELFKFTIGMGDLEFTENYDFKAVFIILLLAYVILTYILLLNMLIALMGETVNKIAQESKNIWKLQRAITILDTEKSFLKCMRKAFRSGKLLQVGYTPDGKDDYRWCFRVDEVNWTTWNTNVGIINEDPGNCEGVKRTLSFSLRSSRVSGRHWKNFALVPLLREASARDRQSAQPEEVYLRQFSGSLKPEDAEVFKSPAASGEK
The experiment in a line: TRPV1 irritation test: intracellular calcium influx (Fluo4-NW) in TRPV1-overexpressing HEK cells. Particulars: 1-hour incubation, normalized to 1 µM capsaicin (100%) and assay buffer (0%). An excerpt: In this TRPV1 test, compositions comprising different amounts of the A. lancea root extract (ALRE) were compared with retinol and tested on Human Embryonic Kidney (HEK) cells stably expressing this TRPV1 channel.
Cytosolic calcium influx was monitored using Fluo4-NW (Thermo Fisher Scientific) mix dye following manufacturer's instructions.
Activation of the TRPV1 receptor causes a Ca^+2 influx, and a direct relationship between fluorescence and TRPV1 receptor response can be established.
Fluorescence signal (AFU) was measured after excitation at 485 nm and emission at 520 nm using ClarioStar Plus microplate reader from BMG LABTECH.
The effect of tested compounds on intracellular Ca^+2 influx was studied 48 hours after cell seeding. The medium of TRPV1-overexpressing HEK cells was replaced by 90 µL/well of Fluo4-NW dye solution in assay buffer containing probenecid. […]
After 1 hour incubation at 37 °C, the plate was kept for 15 minutes at room temperature inside the fluorescence plate reader. After that, the program started with a stop in cycle 3 to add test compounds and capsazepine, 0.2% Triton X-100 (maximal signal control for dye loading) and assay buffer (minimal signal) and the fluorescence signal was recorded for 7 additional cycles. […] The signal was recorded until cycle 20. […]
A general note: A change in cytosolic calcium serves as a functional read-out for many receptors and channels.

Where [2] appears, read: vs non-treated human fibroblast.

On to `O=c1cc(CO)occ1O` [kojic acid], for which the inhibition at 250 µM in assay [1] (250 µM kojic acid) came out at 58%.

As for `CC1=C(/C=C/C(C)=C/C=C/C(C)=C/CO)C(C)(C)CCC1` [retinol], in the assay with Human Dermal Fibroblasts (setting [2]), the MMP1 gene expression entry is recorded as “elevation”, the MMP12 gene expression entry is “elevation”, the TIMP1 gene expression entry is listed as “significantly upregulated” and the TIMP3 gene expression result was “significantly upregulated”. Further, in the assay on Human Dermal Fibroblasts (vs non-treated human fibroblast (100%)), the “gene expression associated with crucial ECM proteins” value was “comparable modulation of gene expression”. In addition, the inhibition at 10 µM in assay [1] (10 µM retinol) is 76%. Also, the intracellular calcium increase entry at human TRPV1 channel (retinol 50 µM) is given as “significant rise”. In addition, the intracellular calcium increase result on human TRPV1 channel (retinol 100 µM) was “significant rise”.

Source of the values: EP4656178A1, “COSMETIC USE OF ATRACTYLODES LANCEA ROOT EXTRACT” (Provital, S.A., priority 2024, dated 2025).
